Results: patent publication US10238714B2, “Method for forming an immune-tolerant site and method for attracting immunosuppressive cells” (KYOTO UNIVERSITY, priority 2015, dated 2019)

How the values were obtained:
[1] = system: TGF-β1; assay: TGF-β1 concentration in the exudate at the site of the SEK-1005-containing agarose rod; assay type: in vivo, ACI rats
Description: (§1) In a polystyrene tube with an inner diameter of 4 mm, 4.5% agarose solution was poured, and the tube was then left to stand at normal temperature to allow gelation of the agarose solution. The resulting agarose gel rod was removed from the polystyrene tube, and cut into a piece having a length of 25 mm. Subsequently, the agarose gel rod was stored in a freezer at −30° C. overnight to allow freezing of water. By freeze-drying the frozen agarose rod, a porous dry agarose rod was prepared. To the dry agarose rod, 50 μl of a solution of 2 mg/ml SEK-1005 in ethanol was added dropwise to include the SEK-1005 solution in the dry agarose rod. Ethanol was then evaporated by air drying.
(§2) On the day when the agarose rod was to be embedded, streptozotocin (STZ) (60 mg/kg body weight) was administered to ACI rats to induce diabetes. To each of the left side and the right side of the back of each ACI rat, the agarose rod having a length of 25 mm and a diameter of 4 mm containing 100 μg of SEK-1005 was embedded. On Day 10 after the embedding, the agarose rod was removed. In the vicinity of each place where the agarose rod had been embedded, formation of connective tissue containing a number of blood vessels was found. This tissue was minced with scissors, and then homogenized, followed by collecting cells from the tissue. The cells were subjected to purification by Percoll density gradient centrifugation to obtain immune cells, and the obtained immune cells were analyzed using a flow cytometer.
The TGF-β1 concentration in the exudate was measured. The TGF-β1 concentration was 0.7±0.1 ng/ml until Day 7 after the SEK-1005-containing agarose rod was embedded. […] This was about 3 times the concentration in a treated group in which an SEK-1005-free agarose rod was embedded.

[2] = system: chemokine/cytokine-associated genes; assay: Gene expression analysis of tissue in vicinity of embedded SEK-1005-containing agarose rod; assay type: in vivo, rat; settings: Day 7 after embedding, versus SEK-1005-free agarose rod group
Description: (§3) On Day 7 after embedding of the SEK-1005-containing agarose rod by the same operation as in Example 1, the tissue in the vicinity of the place where the rod was embedded was collected. The collected tissue was immediately impregnated with RNA later solution (Life Technologies) to inhibit RNA degradation. RNA in the tissue was extracted by the column method. The extracted RNA was amplified by the Express kit method (Affymetrix) and biotin-labeled, followed by hybridization with a Rat Genome 230 2.0 array (Affymetrix). Signals were read by a Hewlett-Packard GeneArray Scanner G2500A. By such a process, gene expression analysis was carried out for three tissue samples obtained from the vicinities of SEK-1005-containing agarose rods and three tissue samples obtained from the vicinities of control SEK-1005-free agarose rods. The obtained fluorescence intensities were standardized and normalized, and then subjected to statistical analysis. The standardized and normalized gene expression level was statistically compared between the SEK-1005-containing agarose rod group and the control SEK-1005-free agarose rod group. Genes showing increased expression in the SEK-1005-containing agarose rod group were plotted such that their values along the X-axis became positive. Log 2 conversion was carried out in terms of the X-axis. […]

[3] = system: cytotoxic T cells (CD8+ T cells); assay: Flow cytometry of immune cells from tissue where SEK-1005-containing agarose rod was embedded under the skin: cytotoxic T cells; assay type: in vivo, ACI rats
Description: as §1
as §2, with “On Day 10 after the embedding, the agarose rod was removed.” left out
In normal subcutaneous tissues, the ratio is about 30%, and, when a foreign substance is embedded, the ratio increases to not less than 50% in most cases. The action of SEK-1005 suppressed such an increase.

[4] = system: CD8+ T cells; assay: Treg suppression assay with CD4+CD25+ cells collected from tissue near the SEK-1005-containing agarose rod; assay type: cell-based, ACI rats; settings: Group 2: CFSE-stained CD8+ T cells, 1 μg/mL anti-CD3 antibody plus 2.5×10^4 CD4+CD25+ cells from Day 10 rod tissue, Day 4.5; Group 1 without these cells 42.4%
Description: On Day 10 after embedding of the SEK-1005-containing agarose rod by the same operation as in Example 1, the tissue in the vicinity of the place where the rod was embedded was collected, and then homogenized, followed by collecting cells from the tissue. The cells were subjected to purification by Percoll density gradient centrifugation to obtain immune cells, and CD4^+CD25^+ cells (a fraction containing a large number of tissue-infiltrating regulatory T cells) were collected using MACS magnetic beads.
CD8^+ T cells were separately prepared from ACI rats, and the cells were then stained with a fluorescent dye, carboxyfluorescein succinimidyl ester (CFSE). On a 96-well plate, 2.5×10^4 CD8^+ T cells and 5×10^4 antigen-presenting cells were plated in each well, and the cell growth was quantitatively evaluated using a flow cytometer on Day 4.5 after the plating. The wells were divided into three groups. In Group 1, 1 μg/mL anti-CD3 antibody was added to stimulate the growth. In Group 2, 1 μg/mL anti-CD3 antibody as well as 2.5×10^4 CD4^+CD25^+ cells were added. In Group 3, no anti-CD3 antibody was added.
One round of cell division of T cells stained with a fluorescent dye results in a decrease in the fluorescence intensity to half. Another division results in a decrease in the fluorescent intensity to one fourth of the original intensity. […]

[5] = Blood glucose level after transplantation of pancreatic islets into the site where the SEK-1005-containing agarose rod was embedded; assay type: in vivo; settings: then removed, 1,500 F344 rat islets per cavity, STZ-diabetic ACI rats
Description: On the day when the SEK-1005-containing agarose rod was to be embedded, streptozotocin (STZ) (60 mg/kg body weight) was administered to ACI rats to induce diabetes. Under the skin of each of the left side and the right side of the back of each ACI rat, the agarose rod prepared in the same way as Example 1 was embedded. On Day 2 or Day 10 after the embedding, the agarose rod was removed, and 1,500 pieces of pancreatic islets separated from the pancreases of F344 rats were transplanted to each of the two dorsal subcutaneous cavities formed. After the transplantation, the blood glucose levels of the rats were measured. […] When SEK-1005-free agarose rod was embedded in the STZ-administered rats for 10 days and after removal of the agarose-rod, pancreatic islets were transplanted to the embedded site, the blood glucose levels of the diabetic rats were not decreased.

[6] = system: regulatory T cells (CD4+Foxp3+ cells); assay: Flow cytometry of immune cells from tissue where SEK-1005-containing agarose rod was embedded under the skin: regulatory T cells; assay type: in vivo, ACI rats; settings: for ratio of Foxp3+ cells among CD4+ cells: STZ-diabetic ACI rats
Description: as §1, §2
The ratio of Foxp3^+ cells among CD4^+ cells was 18.3% on Day 2, 20.8% on Day 7, 23.3% on Day 10, and 27.3% on Day 14 after the SEK-1005-containing agarose rod was embedded under the skin.

[7] = system: regulatory T cells (CD4+Foxp3+ cells); assay: Flow cytometry of immune cells at site where bFGF-containing agarose rod was embedded: regulatory T cells; assay type: in vivo, ACI rats; settings: for ratio of Foxp3+ cells among CD4+ cells: STZ-diabetic ACI rats
Description: as §1, with “mm, 4.5” for “mm, 4.5%”, “rod, 100” for “rod, 50”, “of 500 μg/ml bFGF” for “of a”, “solution (FIBLAST Spray 500, Kaken Pharmaceutical Co., Ltd.)” for “solution of 2 mg/ml SEK-1005 in ethanol”, “the bFGF” for “the SEK-1005”, “rod.” for “rod. Ethanol was then evaporated by air drying.”
(§4) On the day when the agarose rod was to be embedded, streptozotocin (STZ) (60 mg/kg body weight) was administered to ACI rats to induce diabetes. To each of the left side and the right side of the back of each ACI rat, the agarose rod having a length of 25 mm and a diameter of 4 mm containing 50 μg of bFGF was embedded. On Day 7 after the embedding, the agarose rod was pulled out. In the vicinity of each place where the agarose rod had been embedded, formation of connective tissue containing a number of blood vessels was found. This tissue was collected, and then minced with scissors, followed by homogenization. The cells were then subjected to purification by Percoll density gradient centrifugation to obtain immune cells, and the obtained immune cells were analyzed using a flow cytometer.
The ratio of Foxp3^+ cells among CD4^+ cells was 25.4% on Day 2, 24.4% on Day 7, 24.4% on Day 10, and 26.4% on Day 14 after the bFGF-containing agarose rod was embedded under the skin.

[8] = system: myeloid-derived suppressor cells (MDSCs); assay: Flow cytometry for CD11b/c and granulocytes at site where bFGF-containing agarose rod was embedded; assay type: in vivo, ACI rats; settings: group in which the agarose rod-bFGF was embedded
Description: as §1, with “mm, 4.5” for “mm, 4.5%”, “rod, 100” for “rod, 50”, “of 500 μg/ml bFGF” for “of a”, “solution (FIBLAST Spray 500, Kaken Pharmaceutical Co., Ltd.)” for “solution of 2 mg/ml SEK-1005 in ethanol”, “the bFGF” for “the SEK-1005”, “rod.” for “rod. Ethanol was then evaporated by air drying.”
as §4, with “This tissue was collected, and then minced with scissors, followed by homogenization.” left out, “cytometer. […]” for “cytometer.”

[9] = system: chemokine/cytokine-associated genes; assay: Gene expression analysis of tissue in vicinity of embedded bFGF-containing agarose rod; assay type: in vivo, rat; settings: Day 7 after embedding, versus bFGF-free agarose rod group
Description: as §3, with “bFGF-containing” for “SEK-1005-containing”, “4,” for “1,”, “bFGF-free” for “SEK-1005-free”

## CC(C)CC1CCC(O)(C(C)(O)C(=O)NC2C(=O)N3NCCCC3C(=O)N(O)C(C)C(=O)N(C)C(Cc3ccccc3)C(=O)N3NCCCC3C(=O)NC(CO)C(=O)OC2C(C)C)OC1C (stereo not drawn) [SEK-1005, Ser, 3-hydroxy-N-[2-hydroxy-1-oxo-2-tetrahydro-2-hydroxy-6-methyl-5-(2-methylpropyl)-2H-pyran-2-yl-propyl]-Leu-Pip(hexahydro-3-pyridazinecarbonyl)-N-hydroxy-Ala-N-methyl-Phe-Pip-rho-lactone]
[1]; Day 10 after the embedding
  TGF-β1 concentration in the exudate: 2.0 ± 1.0 ng/mL
  TGF-β1 concentration relative to SEK-1005-free agarose rod group: about 3 times
[1]; until Day 7 after the rod was embedded
  TGF-β1 concentration in the exudate: 0.7 ± 0.1 ng/mL
[2]
  expression of genes associated with migration/induction of regulatory T cells among chemokine/cytokine-associated genes: significant increase
  expression of genes not associated with migration/induction of regulatory T cells among chemokine/cytokine-associated genes: significant decrease
[3]; Day 2 after SEK-1005-containing agarose rod embedded under the skin
  ratio of cytotoxic T cells (CD8+ T cells) to CD4+ cells among CD3+ cells: 36.1%
[3]; Day 7 after SEK-1005-containing agarose rod embedded under the skin
  ratio of cytotoxic T cells (CD8+ T cells) to CD4+ cells among CD3+ cells: 33.7%
[3]; Day 10 after SEK-1005-containing agarose rod embedded under the skin
  ratio of cytotoxic T cells (CD8+ T cells) to CD4+ cells among CD3+ cells: 25.5%
[3]; Day 14 after SEK-1005-containing agarose rod embedded under the skin
  ratio of cytotoxic T cells (CD8+ T cells) to CD4+ cells among CD3+ cells: 23.9%
[4]
  ratio of cells exhibiting decreased fluorescence intensity due to cell division: 13.4%
[5]; rod embedded for ten days
  blood glucose levels after transplantation of pancreatic islets: normalized
[5]; rod embedded for two days
  blood glucose levels after transplantation of pancreatic islets: > 400 mg/dL
[6]; Day 2 after rod with 100 μg SEK-1005 embedded under the skin
  ratio of Foxp3+ cells among CD4+ cells: 18.3%
[6]; Day 7 after rod with 100 μg SEK-1005 embedded under the skin
  ratio of Foxp3+ cells among CD4+ cells: 20.8%
[6]; Day 10 after rod with 100 μg SEK-1005 embedded under the skin
  ratio of Foxp3+ cells among CD4+ cells: 23.3%
[6]; Day 14 after rod with 100 μg SEK-1005 embedded under the skin
  ratio of Foxp3+ cells among CD4+ cells: 27.3%
[6]; versus about 10% in normal subcutaneous tissues
  increase of ratio of regulatory T cells (CD4+Foxp3+ cells): 2- to 3 fold

## bFGF: basic fibroblast growth factor; bFGF solution (FIBLAST Spray 500, Kaken Pharmaceutical Co., Ltd.)
[7]; Day 2 after rod with 50 μg bFGF embedded under the skin
  ratio of Foxp3+ cells among CD4+ cells: 25.4%
[7]; Day 7 after rod with 50 μg bFGF embedded under the skin
  ratio of Foxp3+ cells among CD4+ cells: 24.4%
[7]; Day 10 after rod with 50 μg bFGF embedded under the skin
  ratio of Foxp3+ cells among CD4+ cells: 24.4%
[7]; Day 14 after rod with 50 μg bFGF embedded under the skin
  ratio of Foxp3+ cells among CD4+ cells: 26.4%
[7]; versus about 10% in normal subcutaneous tissues and bFGF-free agarose rod-embedded rats
  increase of ratio of regulatory T cells: 2- to 3 fold
[8]
  granulocyte marker: increase
  myeloid-derived suppressor cells (MDSCs): induced
[9]
  expression of genes associated with migration/induction of regulatory T cells among chemokine/cytokine-associated genes: significant increase
  expression of genes not associated with migration/induction of regulatory T cells among chemokine/cytokine-associated genes: significant decrease
